Patent US20250114362A1, “METHODS AND COMPOSITIONS FOR TREATMENT OF CUTANEOUS PROLIFERATIVE DISORDERS AND OTHER SKIN CONDITIONS” (ASYMMETRIC THERAPEUTICS, LLC, priority 2022, published 2025)
Values joined by “and” are separate entries in the source; they are usually repeats but may differ in a detail not shown here. Equal values may be shown once.

What was measured:
p21 = assay: MatTek PSE culture system, p21 mRNA by qPCR; type: cell-based, human; settings: after two days of treatment
Procedure: (§1) Other markers of cell proliferation were also measured, namely (protein p21), and four markers of inflammatory signaling (IL17A, IL23A, TNF-α, and transforming growth factor beta (TGF-β)) in the MatTek PSE culture system after two days of treatment were also determined. Ki67 is a nuclear protein and a replication marker. The marker levels were determined by isolating total RNA by a Promega SV96 Total RNA Isolation Vacuum System (Promega, Madison, WI) according to the manufacturer's instructions. The total RNA was reverse transcribed using an ABI High Capacity cDNA reverse transcription kit (Applied Biosystems, Foster City, CA). Quantitative real-time polymerase chain reaction (qPCR) was performed with the use of a SYBR Green PCR Master Mix (Applied Biosystems) according to the manufacturer's protocol and amplified on a StepOnePlus Real-Time PCR System.

[1] = system: MatTek human PSE culture system (SOR-300-FT); assay: MatTek human PSE culture system, tissue layer thickness and histology
From the text: The thickness of each of the three tissue layers of skin was monitored and measured after two days and after six days of exposure to the treatment medium in a blinded fashion by a board-certified and nationally respected pathologist.

IL17A = assay: MatTek PSE culture system, IL17A mRNA by qPCR; type: cell-based, human; settings: after two days of treatment
Procedure: as §1

psoriasis [2] = settings: Viglioglia et al. 1970; cited from earlier work
IL23A = assay: MatTek PSE culture system, IL23A mRNA by qPCR; type: cell-based, human; settings: after two days of treatment
Procedure: as §1

p21/Ki67 = assay: MatTek PSE culture system, ratio of p21 to Ki67 mRNA levels; type: cell-based, human; settings: after two days of treatment; treatment compositions of Table 5
Procedure: Ki67 is a replication marker for cells and the lower the value, the lower the replication rate. P21 is a protein which is a marker for the inhibition of cell proliferation. Thus, an increased ratio of P21/Ki67 indicates decreased cell replication. FIG. 9 illustrates this ratio under several conditions as described in Example 2.
as §1
To highlight effects on cell proliferation, the ratio of p21 to Ki67 mRNA levels were calculated, with the results being shown in FIG. 9.

HaCaT cells = assay: M5 cocktail psoriasis-like HaCaT keratinocyte model, live and dead cell numbers by MultiTox-Glo Multiplex Cytotoxicity Assay; settings: for Cell Counts, 0 hours, Dead / Cell Counts, 0 hours, Live / Cell Ratios, 0 hours, Dead / Cell Ratios, 0 hours, Total: 0 hours (baseline); for Cell Counts, 0 hours, Dead / Cell Counts, 0 hours, Live / Cell Counts, 48 hours, Dead / Cell Counts, 48 hours, Total / Cell Counts, 72 hours, Dead / Cell Counts, 72 hours, Total: M5 cocktail, ± standard deviation; for Cell Ratios, 0 hours, Dead / Cell Ratios, 0 hours, Total / Cell Ratios, 48 hours, Dead / Cell Ratios, 48 hours, Total / Cell Ratios, 72 hours, Dead / Cell Ratios, 72 hours, Total: relative to 9177 live cells at zero hours
Procedure: Immortalized human keratinocytes (HaCaT cells) purchased from AddexBio (San Diego, CA) were maintained in vitro in Dulbecco's modified Eagle's medium (DMEM) supplemented with 10% Fetal Bovine Serum (FBS) and antibiotics (100 U/mL penicillin and […] streptomycin) and cultured in an incubator with 5% CO2 at 37° C.
HaCaT cells were seeded at approximately 50% density (1×10^4 cells/well) and after 16 h the medium was replaced with 50 μL of pre-treatment medium containing different concentrations of allopurinol (0, 0.5, or 3 mM) or methotrexate (1 μM) and placed back into the incubator. Treatment media was prepared using standard media containing vehicle control (PBS) or M5 cocktail.
Other HaCaT cells were incubated in vitro for 72 hours in the presence of a M5 composition that also included 1.0 μM methotrexate, 0.5 mM allopurinol, 3.0 mM allopurinol, 0.5 mM oxypurinol, or 3.0 mM oxypurinol.
The number of live and dead cells were determined by the MultiTox-Glo Multiplex Cytotoxicity Assay (Promega, Madison WI) according to the manufacturer's protocol. A dilution series of cells was used to generate a standard curve for calculation of cell number in each well. The total number of cells was the sum of the live and dead cells.

hand-foot syndrome = settings: topical; prevention of hand-foot syndrome; trial by Rodemer; cited from earlier work
TNF-α = assay: MatTek PSE culture system, TNF-α mRNA by qPCR; type: cell-based, human; settings: after two days of treatment
Procedure: as §1

Ki67 = assay: MatTek PSE culture system, Ki67 level by PCR; type: cell-based, human; settings: for Relative Ki67 Level: Day 6, normalized to control at Day 0 = 1.0; for Relative Expression Levels, Ki67: after two days of treatment
Procedure: The level of Ki67 in the MatTek tissue culture system was also determined. Ki67 is a nuclear protein and a replication marker. The level of Ki67 was determined by polymerase chain reaction (PCR) analysis with standard protocols. The relative levels are normalized with respect to the measured Ki67 level of the control at Day 0, which is adjusted to 1.0.
as §1

TGF-β = assay: MatTek PSE culture system, TGF-β mRNA by qPCR; type: cell-based, human; settings: after two days of treatment
Procedure: as §1

psoriasis [3] = settings: oral administration; double-blind cross-over study, Feuerman et al. 1973; cited from earlier work

Q: Which results are given for `Oc1ncnc2[nH]ncc12` [allopurinol]?
A: Relative Expression Levels, p21 (p21; 0.5 mM): 1.27 ± 0.10; Relative Expression Levels, p21 (p21; 3 mM): 1.40 ± 0.17; Layer Thickness, Dermis ([1]; 0.5 mM, 2 days): 0.4 mm; Layer Thickness, Epidermis ([1]; 0.5 mM, 2 days): 0.1 mm; Layer Thickness, Stratum Corneum ([1]; 0.5 mM, 2 days): 0.05 mm; Layer Thickness, Dermis ([1]; 0.5 mM, 6 days): 0.25 mm; Layer Thickness, Epidermis ([1]; 0.5 mM, 6 days): 0.1 mm; Layer Thickness, Stratum Corneum ([1]; 0.5 mM, 6 days): 0.05 mm; increase in dermis layer thickness from treatment for 2 days to 6 days ([1]; 3.0 mM allopurinol alone): 1.4 fold; Layer Thickness, Dermis ([1]; 3 mM, 2 days): 0.25 mm; Layer Thickness, Epidermis ([1]; 3 mM, 2 days): 0.1 mm; Layer Thickness, Stratum Corneum ([1]; 3 mM, 2 days): 0.02 mm; Layer Thickness, Dermis ([1]; 3 mM, 6 days): 0.35 mm; Layer Thickness, Epidermis ([1]; 3 mM, 6 days): 0.15 mm; Layer Thickness, Stratum Corneum ([1]; 3 mM, 6 days): 0.1 mm; Relative Expression Levels, IL17A (IL17A; 0.5 mM): 0.21 ± 0.07; Relative Expression Levels, IL17A (IL17A; 3 mM): 0.09 ± 0.04; cases with excellent results (psoriasis [2]): 50%; cases with good results (psoriasis [2]): 34%; cases with moderate results (psoriasis [2]): 16%; Relative Expression Levels, IL23A (IL23A; 0.5 mM): 0.95 ± 0.20; Relative Expression Levels, IL23A (IL23A; 3 mM): 0.66 ± 0.17; p21/Ki67 ratio (mRNA levels) (p21/Ki67): markedly increased; Cell Counts, 0 hours, Dead (HaCaT cells; 0.5 mM): 801 ± 19; Cell Counts, 0 hours, Live (HaCaT cells; 0.5 mM): 9177 ± 90; Cell Ratios, 0 hours, Dead (HaCaT cells; 0.5 mM): 0.087; Cell Ratios, 0 hours, Total (HaCaT cells; 0.5 mM): 1.087; Cell Counts, 48 hours, Dead (HaCaT cells; 0.5 mM): 2319 ± 141; Cell Counts, 48 hours, Total (HaCaT cells; 0.5 mM): 11705 ± 161; Cell Ratios, 48 hours, Dead (HaCaT cells; 0.5 mM): 0.253; Cell Ratios, 48 hours, Total (HaCaT cells; 0.5 mM): 1.275; Cell Counts, 72 hours, Dead (HaCaT cells; 0.5 mM): 4024 ± 166; Cell Counts, 72 hours, Total (HaCaT cells; 0.5 mM): 13428 ± 216; Cell Ratios, 72 hours, Dead (HaCaT cells; 0.5 mM): 0.44 and 0.438; Cell Ratios, 72 hours, Total (HaCaT cells; 0.5 mM): 1.46 and 1.463; Cell Counts, 0 hours, Dead (HaCaT cells; 3.0 mM): 801 ± 19; Cell Counts, 0 hours, Live (HaCaT cells; 3.0 mM): 9177 ± 90; Cell Ratios, 0 hours, Dead (HaCaT cells; 3.0 mM): 0.087; Cell Ratios, 0 hours, Total (HaCaT cells; 3.0 mM): 1.087; Cell Counts, 48 hours, Dead (HaCaT cells; 3.0 mM): 1275 ± 117; Cell Counts, 48 hours, Total (HaCaT cells; 3.0 mM): 9038 ± 176; Cell Ratios, 48 hours, Dead (HaCaT cells; 3.0 mM): 0.139; Cell Ratios, 48 hours, Total (HaCaT cells; 3.0 mM): 0.985; Cell Counts, 72 hours, Dead (HaCaT cells; 3.0 mM): 2004 ± 168; Cell Counts, 72 hours, Total (HaCaT cells; 3.0 mM): 9367 ± 280; Cell Ratios, 72 hours, Dead (HaCaT cells; 3.0 mM): 0.22 and 0.218; Cell Ratios, 72 hours, Total (HaCaT cells; 3.0 mM): 1.02 and 1.021; clinical efficacy endpoint (hand-foot syndrome): did not meet its clinical efficacy endpoint; Relative Expression Levels, TNF-α (TNF-α; 0.5 mM): 0.75 ± 0.13; Relative Expression Levels, TNF-α (TNF-α; 3 mM): 0.82 ± 0.19; Relative Ki67 Level (Ki67; 0.5 mM): 3.18; Relative Expression Levels, Ki67 (Ki67; 0.5 mM): 0.27 ± 0.01; Relative Ki67 Level (Ki67; 3 mM): 0.96; Relative Expression Levels, Ki67 (Ki67; 3 mM): 0.42 ± 0.09; Relative Expression Levels, TGF-β (TGF-β; 0.5 mM): 0.90 ± 0.09; Relative Expression Levels, TGF-β (TGF-β; 3 mM): 0.60 ± 0.12; improvement in psoriasis versus placebo (psoriasis [3]): no improvement over a placebo

Q: Which “Relative Expression Levels, p21” value (p21; 3 mM) does the source give for `N[C@@H](CCC(=O)N[C@@H](CS)C(=O)NCC(=O)O)C(=O)O` [glutathione] here?
A: 1.35 ± 0.06

Q: And the “Layer Thickness, Dermis” value ([1]; 3 mM, 2 days)?
A: 0.3 mm

Q: What about the “Layer Thickness, Epidermis” value ([1]; 3 mM, 2 days) of the same compound?
A: 0.2 mm

Q: What about the “Layer Thickness, Stratum Corneum” value ([1]; 3 mM, 2 days) of the same compound?
A: 0.15 mm

Q: What about the “Relative Expression Levels, IL17A” value (IL17A; 3 mM) of the same compound?
A: 0.04 ± 0.02

Q: What about the “Relative Expression Levels, IL23A” value (IL23A; 3 mM) of the same compound?
A: 0.79 ± 0.14

Q: What about the “p21/Ki67 ratio (mRNA levels)” value (p21/Ki67) of the same compound?
A: markedly increased

Q: And the “Relative Expression Levels, TNF-α” value (TNF-α; 3 mM)?
A: 0.29 ± 0.07

Q: And the “Relative Expression Levels, Ki67” value (Ki67; 3 mM)?
A: 0.27 ± 0.01

Q: What about the “Relative Expression Levels, TGF-β” value (TGF-β; 3 mM) of the same compound?
A: 0.77 ± 0.10
